Experimental data from ChEMBL document CHEMBL5385944, “Hydrazyl hydroxycoumarins as new potential conquerors towards Pseudomonas aeruginosa” (Bioorg Med Chem Lett, 2024).
Converted amounts (≈) assume the structure as drawn.

Columns and labels:
Type in all cases: functional
[1] = system: Staphylococcus aureus; assay: Antibacterial activity against Staphylococcus aureus ATCC 25923 assessed as reduction in bacterial growth by CLSI protocol based method
[2] = system: Escherichia coli; assay: Antibacterial activity against Escherichia coli ATCC 25922 assessed as reduction in bacterial growth by CLSI protocol based method
[3] = system: Staphylococcus aureus; assay: Antibacterial activity against Staphylococcus aureus ATCC 29213 assessed as reduction in bacterial growth by CLSI protocol based method
[4] = system: Staphylococcus aureus; assay: Antibacterial activity against methicillin resistant Staphylococcus aureus assessed as reduction in bacterial growth by CLSI protocol based method
[5] = system: Pseudomonas aeruginosa; assay: Antibacterial activity against Pseudomonas aeruginosa ATCC 27853 assessed as reduction in bacterial growth by CLSI protocol based method
[6] = system: Staphylococcus aureus; assay: Antibacterial activity against methicillin resistant Staphylococcus aureus 43300 assessed as reduction in bacterial growth by CLSI protocol based method
[7] = system: Acinetobacter baumannii; assay: Antibacterial activity against Acinetobacter baumannii assessed as reduction in bacterial growth by CLSI protocol based method
[8] = system: Pseudomonas aeruginosa; assay: Antibacterial activity against Pseudomonas aeruginosa ATCC 90027 assessed as reduction in bacterial growth by CLSI protocol based method
[9] = system: Pseudomonas aeruginosa; assay: Antibacterial activity against Pseudomonas aeruginosa ATCC 10104 assessed as reduction in bacterial growth by CLSI protocol based method
[10] = system: Pseudomonas aeruginosa; assay: Antibacterial activity against Pseudomonas aeruginosa assessed as reduction in bacterial growth by CLSI protocol based method
[11] = system: Enterococcus faecalis; assay: Antibacterial activity against Enterococcus faecalis assessed as reduction in bacterial growth by CLSI protocol based method
[12] = system: Klebsiella pneumoniae; assay: Antibacterial activity against Klebsiella pneumoniae assessed as reduction in bacterial growth by CLSI protocol based method

Row | SMILES | MIC [1] [µg/mL] | MIC [2] [µg/mL] | MIC [3] [µg/mL] | MIC [4] [µg/mL] | MIC [5] [µg/mL] | MIC [6] [µg/mL] | MIC [7] [µg/mL] | MIC [8] [µg/mL] | MIC [9] [µg/mL] | MIC [10] [µg/mL] | MIC [11] [µg/mL] | MIC [12] [µg/mL]
1 | N/N=C/c1c(O)ccc2ccc(=O)oc12 | 16 (≈ 78.4 µM) | 32 (≈ 157 µM) | 512 (≈ 2510 µM) | 128 (≈ 627 µM) | 128 (≈ 627 µM) | 128 (≈ 627 µM) | 256 (≈ 1250 µM) | 512 (≈ 2510 µM) | 512 (≈ 2510 µM) | 512 (≈ 2510 µM) | 512 (≈ 2510 µM) | 128 (≈ 627 µM)
2 | Cc1cc(NS(=O)(=O)c2ccc(N/N=C/c3c(O)ccc4ccc(=O)oc34)cc2)no1 | 256 (≈ 581 µM) | 512 (≈ 1160 µM) | 512 (≈ 1160 µM) | 256 (≈ 581 µM) | 512 (≈ 1160 µM) | 512 (≈ 1160 µM) | 256 (≈ 581 µM) | 256 (≈ 581 µM) | 256 (≈ 581 µM) | 512 (≈ 1160 µM) | 256 (≈ 581 µM) | 256 (≈ 581 µM)
3 | O=c1ccc2ccc(O)c(/C=N/NS(=O)(=O)c3ccccc3)c2o1 | 512 (≈ 1490 µM) | 512 (≈ 1490 µM) | 32 (≈ 92.9 µM) | 512 (≈ 1490 µM) | 512 (≈ 1490 µM) | 512 (≈ 1490 µM) | 512 (≈ 1490 µM) | 512 (≈ 1490 µM) | 512 (≈ 1490 µM) | 512 (≈ 1490 µM) | 512 (≈ 1490 µM) | 2 (≈ 5.81 µM)
4 | CC(=O)Nc1ccc(S(=O)(=O)N/N=C/c2c(O)ccc3ccc(=O)oc23)cc1 | 512 (≈ 1280 µM) | 256 (≈ 638 µM) | 512 (≈ 1280 µM) | 512 (≈ 1280 µM) | 512 (≈ 1280 µM) | 512 (≈ 1280 µM) | 128 (≈ 319 µM) | 64 (≈ 159 µM) | 512 (≈ 1280 µM) | 512 (≈ 1280 µM) | 512 (≈ 1280 µM) | 512 (≈ 1280 µM)
5 | O=C(N/N=C/c1c(O)ccc2ccc(=O)oc12)c1ccc(O)cc1 | 512 (≈ 1580 µM) | 512 (≈ 1580 µM) | 512 (≈ 1580 µM) | 512 (≈ 1580 µM) | 512 (≈ 1580 µM) | 512 (≈ 1580 µM) | 512 (≈ 1580 µM) | 512 (≈ 1580 µM) | 512 (≈ 1580 µM) | 512 (≈ 1580 µM) | 512 (≈ 1580 µM) | 256 (≈ 789 µM)
6 | O=c1ccc2ccc(O)c(/C=N/NS(=O)(=O)c3ccc(Cl)cc3)c2o1 | 512 (≈ 1350 µM) | 256 (≈ 676 µM) | 4 (≈ 10.6 µM) | 512 (≈ 1350 µM) | 512 (≈ 1350 µM) | 512 (≈ 1350 µM) | 512 (≈ 1350 µM) | 512 (≈ 1350 µM) | 512 (≈ 1350 µM) | 256 (≈ 676 µM) | 512 (≈ 1350 µM) | 256 (≈ 676 µM)
